Experiments:
PI3Kδ (p110δ/p85α) = PI3Kδ (p110δ/p85α) (Homo sapiens (Human), UniProt O00329); experiment: Example A3: PI3Kδ scintillation proximity assay; format: biochemical; conditions: scintillation proximity assay, 20 μM ATP, 4 nM PI3Kδ; read-out: PI3Kδ SPA IC50
How it was run: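 p110δ/p85α (4 nM) phosphorylated 20 μM PIP2 with 20 μM ATP plus [γ-33P]ATP in MOPS pH 6.7, MgCl2, DTT, CHAPS, 0.5% DMSO, at RT. Stopped with EDTA/excess ATP, product captured on WGA SPA beads overnight and counted; IC50 from percent control activity versus log inhibitor.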

[1] = system: Pfeiffer cell line (diffuse large B cell lymphoma); experiment: Example B2: Pfeiffer cell proliferation assay; format: cell-based; conditions: Pfeiffer cells, [3H]-thymidine incorporation
Method: Pfeiffer cell line (diffuse large B cell lymphoma) are purchased from ATCC (Manassas, Va.) and maintained in the culture medium recommended (RPMI and 10% FBS). To measure the anti-proliferation activity of the compounds, the Pfeiffer cells are plated with the culture medium (2×10^3 cells/well/per 200 μl) into 96-well ultra-low binding plates (Corning, Corning, N.Y.), in the presence or absence of a concentration range of test compounds. After 3-4 days, [^3H]-thymidine (1 μCi/well) (PerkinElmer, Boston, Mass.) in PBS is then added to the cell culture for an additional 12 hours before the incorporated radioactivity is separated by filtration with water through GF/B filters (Packard Bioscience, Meridenj, Conn.) and measured by liquid scintillation counting with a TopCount (Packard Bioscience).

PI3K isoform δ = PI3K isoform δ (Homo sapiens (Human), UniProt O00329); experiment: Example A2: PI3K enzyme assay ([γ-33P]ATP filter plate), PI3Kδ; format: biochemical; conditions: as determined by Assay A2
Method: PI3K isoforms α, β, δ and γ are purchased from Millipore (Bedford, Mass.).
Inhibitors are first diluted serially in DMSO and added to the plate wells before the addition of other reaction components. The final concentration of DMSO in the assay is 0.5%. The PI3K assays are carried out at room temperature in 20 mM MOPS, pH 6.7, 10 mM MgCl2, 5 mM DTT and CHAPS 0.03%. The reaction mixture is prepared containing 50 μM PIP2, kinase and varying concentration of inhibitors. Reactions are initiated by the addition of ATP containing 2.2 μCi [γ-^33P]ATP to a final concentration of 1000 μM. […] Reactions are incubated for 180 minutes and terminated by the addition of 100 μL of 1 M potassium phosphate pH 8.0, 30 mM EDTA quench buffer. A 100 μL aliquot of the reaction solution are then transferred to 96-well Millipore MultiScreen IP 0.45 μm PVDF filter plate (The filter plate is prewetted with 200 μL 100% ethanol, distilled water, and 1 M potassium phosphate pH 8.0, respectively). […] After drying by aspiration and blotting, the plate is air dried in an incubator at 37° C. overnight. Packard TopCount adapter (Millipore) is then attached to the plate followed with addition of 120 μL Microscint 20 scintillation cocktail (Perkin Elmer) in each well. After the plate sealing, the radioactivity of the product is determined by scintillation counting on Topcount (Perkin-Elmer). […]

PI3Kδ (p110δ/p85α), sequence (O00329 whole entry): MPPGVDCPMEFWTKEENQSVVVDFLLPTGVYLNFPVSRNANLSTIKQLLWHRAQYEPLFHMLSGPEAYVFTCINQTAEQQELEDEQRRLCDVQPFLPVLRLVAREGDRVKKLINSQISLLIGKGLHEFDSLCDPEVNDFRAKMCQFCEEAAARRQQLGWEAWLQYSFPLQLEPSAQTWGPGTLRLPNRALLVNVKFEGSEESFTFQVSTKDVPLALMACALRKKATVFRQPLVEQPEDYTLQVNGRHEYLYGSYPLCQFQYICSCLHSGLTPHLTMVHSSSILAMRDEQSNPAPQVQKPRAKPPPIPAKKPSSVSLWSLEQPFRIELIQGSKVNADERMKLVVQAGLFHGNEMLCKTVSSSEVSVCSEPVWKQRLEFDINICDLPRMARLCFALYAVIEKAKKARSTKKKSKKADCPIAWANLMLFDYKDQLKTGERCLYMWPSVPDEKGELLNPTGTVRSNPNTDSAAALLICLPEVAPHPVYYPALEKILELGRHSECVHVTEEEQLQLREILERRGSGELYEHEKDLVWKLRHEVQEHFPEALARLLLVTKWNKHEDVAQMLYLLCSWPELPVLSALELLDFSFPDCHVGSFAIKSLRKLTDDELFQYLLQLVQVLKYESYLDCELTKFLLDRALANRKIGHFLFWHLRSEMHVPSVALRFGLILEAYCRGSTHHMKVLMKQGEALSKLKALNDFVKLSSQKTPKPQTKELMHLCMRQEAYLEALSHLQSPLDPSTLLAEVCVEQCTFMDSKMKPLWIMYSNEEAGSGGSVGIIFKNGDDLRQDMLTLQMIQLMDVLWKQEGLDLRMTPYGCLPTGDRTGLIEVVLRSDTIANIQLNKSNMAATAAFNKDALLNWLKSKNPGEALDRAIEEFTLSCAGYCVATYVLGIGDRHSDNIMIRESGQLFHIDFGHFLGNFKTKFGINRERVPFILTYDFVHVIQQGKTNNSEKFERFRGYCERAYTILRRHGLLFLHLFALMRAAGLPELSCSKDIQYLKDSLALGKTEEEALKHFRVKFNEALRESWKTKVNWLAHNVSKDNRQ
PI3Kδ (p110δ/p85α), sequence (P27986 whole entry partner): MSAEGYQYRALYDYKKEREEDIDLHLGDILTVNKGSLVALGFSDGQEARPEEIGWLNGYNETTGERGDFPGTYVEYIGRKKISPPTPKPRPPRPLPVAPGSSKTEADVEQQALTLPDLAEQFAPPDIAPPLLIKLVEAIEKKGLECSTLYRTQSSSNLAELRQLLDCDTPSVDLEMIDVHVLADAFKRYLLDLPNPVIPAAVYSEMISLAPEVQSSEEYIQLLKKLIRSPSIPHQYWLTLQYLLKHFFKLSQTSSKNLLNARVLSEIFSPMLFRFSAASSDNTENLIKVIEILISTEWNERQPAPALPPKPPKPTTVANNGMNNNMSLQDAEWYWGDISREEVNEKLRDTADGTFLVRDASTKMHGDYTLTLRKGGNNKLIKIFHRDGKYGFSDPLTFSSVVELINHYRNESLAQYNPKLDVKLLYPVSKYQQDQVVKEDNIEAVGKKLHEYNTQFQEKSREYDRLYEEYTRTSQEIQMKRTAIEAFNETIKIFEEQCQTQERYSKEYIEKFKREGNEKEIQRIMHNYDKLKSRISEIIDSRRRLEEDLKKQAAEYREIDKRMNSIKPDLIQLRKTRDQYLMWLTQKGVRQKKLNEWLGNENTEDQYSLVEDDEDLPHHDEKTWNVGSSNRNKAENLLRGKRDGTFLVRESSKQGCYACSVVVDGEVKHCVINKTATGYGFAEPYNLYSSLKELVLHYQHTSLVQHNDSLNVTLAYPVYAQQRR
PI3K isoform δ, sequence (O00329 whole entry, canonical isoform): as the sequence (O00329 whole entry) above
PI3K isoform δ, sequence (P27986 whole entry partner, canonical isoform): as the sequence (P27986 whole entry partner) above

SMILES	IC50 (PI3Kδ (p110δ/p85α))	IC50 ([1]; Homo sapiens, Pfeiffer)	IC50 [1]	IC50 (PI3K isoform δ)
COc1c(C(C)n2nc(C)c3c(N)ncnc32)cc(Cl)c(C)c1C1CCN(C)CC1 (racemic) [Example 163, 1-{1-[5-Chloro-2-methoxy-4-methyl-3-(1-methylpiperidin-4-yl)phenyl]ethyl}-3-methyl-1H-pyrazolo[3,4-d]pyrimidin-4-amine]	< 10 nM	10 to 50 nM		
COc1c(C(C)n2nc(C)c3c(N)ncnc32)cc(Cl)c(C)c1C1CN(C[C@@H](C)O)C1 (single isomer, unassigned) [Example 103]	< 10 nM		10 to 50 nM	
COc1c(C(C)n2nc(C)c3c(N)ncnc32)cc(Cl)c(C)c1C1CN(CCO)C1 (single isomer, unassigned) [Example 104, 2-(3-{3-[1-(4-Amino-3-methyl-1H-pyrazolo[3,4-d]pyrimidin-1-yl)ethyl]-5-chloro-2-methoxy-6-methylphenyl}azetidin-1-yl)ethanol]	< 10 nM	10 to 50 nM		
CCOc1c(C(C)n2nc(C)c3c(N)ncnc32)cc(Cl)c(C#N)c1C1CN(C)C1 (single isomer, unassigned) [Example 213, 4-[1-(4-Amino-3-methyl-1H-pyrazolo[3,4-d]pyrimidin-1-yl)ethyl]-6-chloro-3-ethoxy-2-(1-methylazetidin-3-yl)benzonitrile]	< 10 nM	< 10 nM		
COc1c(C(C)n2nc(C)c3c(N)ncnc32)cc(Cl)c(C#N)c1C1CN(C)C1 (single isomer, unassigned) [Example 262, 4-[1-(4-Amino-3-methyl-1H-pyrazolo[3,4-d]pyrimidin-1-yl)ethyl]-6-chloro-3-methoxy-2-(1-methylazetidin-3-yl)benzonitrile]	< 10 nM	< 10 nM		
COc1c(C(C)n2nc(C)c3c(N)ncnc32)cc(Cl)c(C#N)c1C1CN(CCO)C1 (single isomer, unassigned) [Example 268, 4-[1-(4-Amino-3-methyl-1H-pyrazolo[3,4-d]pyrimidin-1-yl)ethyl]-6-chloro-2-[1-(2-hydroxyethyl)azetidin-3-yl]-3-methoxybenzonitrile]	< 10 nM	< 10 nM		
COc1c(C(C)n2nc(C)c3c(N)ncnc32)cc(C)c(C#N)c1C1CN(C[C@H](C)O)C1 (single isomer, unassigned) [Example 315]	< 10 nM	< 10 nM		
CCOc1c(C(C)n2nc(C)c3c(N)ncnc32)cc(Cl)c(F)c1C1CNC(=O)O1 (single isomer, unassigned) [Example 357, 5-{3-[1-(4-amino-3-methyl-1H-pyrazolo[3,4-d]pyrimidin-1-yl)ethyl]-5-chloro-2-ethoxy-6-fluorophenyl}-1,3-oxazolidin-2-one]	< 10 nM	< 10 nM		
COc1c(C(C)n2nc(C)c3c(N)ncnc32)cc(Cl)c(C)c1C1CN(CC(C)O)C1 (stereo in doubt) [Example 102, (2S)-1-(3-{3-[1-(4-Amino-3-methyl-1H-pyrazolo[3,4-d]pyrimidin-1-yl)ethyl]-5-chloro-2-methoxy-6-methylphenyl}azetidin-1-yl)propan-2-ol]	< 10 nM	< 10 nM		
CCOc1c(C(C)n2nc(C)c3c(N)ncnc32)cc(Cl)c(C)c1C1CN(C[C@H](C)O)C1 (stereo partly drawn) [Example 96, (2S)-1-(3-{3-[1-(4-Amino-3-methyl-1H-pyrazolo[3,4-d]pyrimidin-1-yl)ethyl]-5-chloro-2-ethoxy-6-methylphenyl}azetidin-1-yl)propan-2-ol bis(trifluoroacetate)]	< 10 nM	< 10 nM		
COc1c(C(C)n2nc(C)c3c(N)ncnc32)cc(Cl)c(C)c1C1CN(C(C)CF)C1 (stereo not drawn) [Example 114, 1-(1-{5-Chloro-3-[1-(2-fluoro-1-methylethyl)azetidin-3-yl]-2-methoxy-4-methylphenyl}ethyl)-3-methyl-1H-pyrazolo[3,4-d]pyrimidin-4-amine]	< 10 nM	< 10 nM		
CCOc1c(C(C)n2nc(C)c3c(N)ncnc32)cc(Cl)c(F)c1C1CN(C(C)C)C1 (stereo not drawn) [Example 139, 1-{1-[5-Chloro-2-ethoxy-4-fluoro-3-(1-isopropylazetidin-3-yl)phenyl]ethyl}-3-methyl-1H-pyrazolo[3,4-d]pyrimidin-4-amine]	< 10 nM	< 10 nM		
CCOc1c(C(C)n2nc(C)c3c(N)ncnc32)cc(Cl)c(F)c1C1CN(C[C@@H](C)O)C1 (stereo partly drawn) [Example 142, (2R)-1-(3-{3-[1-(4-Amino-3-methyl-1H-pyrazolo[3,4-d]pyrimidin-1-yl)ethyl]-5-chloro-2-ethoxy-6-fluorophenyl}azetidin-1-yl)propan-2-ol]	< 10 nM	< 10 nM		
CCOc1c(C(C)n2nc(C(F)F)c3c(N)ncnc32)cc(Cl)c(F)c1C1CN(C[C@H](C)O)C1 (stereo partly drawn) [Example 154, (2S)-1-[3-(3-{1-[4-Amino-3-(difluoromethyl)-1H-pyrazolo[3,4-d]pyrimidin-1-yl]ethyl}-5-chloro-2-ethoxy-6-fluorophenyl)azetidin-1-yl]propan-2-ol]	< 10 nM	< 10 nM		
COc1c(C(C)n2nc(C)c3c(N)ncnc32)cc(Cl)c(C)c1C1CN([C@@H](C)CO)C1 (stereo partly drawn) [Example 157]	< 10 nM	10 to 50 nM		
CCOc1c(C(C)n2nc(C)c3c(N)ncnc32)cc(Cl)c(C#N)c1C1CN(C[C@H](C)O)C1 (stereo partly drawn) [Example 220, 4-[1-(4-Amino-3-methyl-1H-pyrazolo[3,4-d]pyrimidin-1-yl)ethyl]-6-chloro-3-ethoxy-2-{1-[(2S)-2-hydroxypropyl]azetidin-3-yl}benzonitrile]	< 10 nM	< 10 nM		
CCOc1c(C(C)n2nc(C)c3c(N)ncnc32)cc(Cl)c(C#N)c1C1CN(C[C@@H](C)O)C1 (stereo partly drawn) [Example 221, 4-[1-(4-Amino-3-methyl-1H-pyrazolo[3,4-d]pyrimidin-1-yl)ethyl]-6-chloro-3-ethoxy-2-{1-[(2R)-2-hydroxypropyl]azetidin-3-yl}benzonitrile]	< 10 nM	< 10 nM		
COc1c(C(C)n2nc(C)c3c(N)ncnc32)cc(Cl)c(C#N)c1C1CN(C[C@H](C)O)C1 (stereo partly drawn) [Example 269, 4-[1-(4-Amino-3-methyl-1H-pyrazolo[3,4-d]pyrimidin-1-yl)ethyl]-6-chloro-2-{1-[(2S)-2-hydroxypropyl]azetidin-3-yl}-3-methoxybenzonitrile]	< 10 nM	< 10 nM		
COc1c(C(C)n2nc(C)c3c(N)ncnc32)cc(Cl)c(C#N)c1C1CN(C[C@@H](C)O)C1 (stereo partly drawn) [Example 270, 4-[1-(4-Amino-3-methyl-1H-pyrazolo[3,4-d]pyrimidin-1-yl)ethyl]-6-chloro-2-{1-[(2R)-2-hydroxypropyl]azetidin-3-yl}-3-methoxybenzonitrile]	< 10 nM	< 10 nM		
COc1c([C@@H](C)n2nc(C)c3c(N)ncnc32)cc(Cl)c(C#N)c1C1CN(C[C@H](C)O)C1 [Example 361, 4-((R)-1-(4-amino-3-methyl-1H-pyrazolo[3,4-d]pyrimidin-1-yl)ethyl)-6-chloro-2-(1-((S)-2-hydroxypropyl)azetidin-3-yl)-3-methoxybenzonitrile]				> 500 nM

— patent US10092570B2 (Incyte Corporation, priority 2011, dated 2018)
